Data published in patent US8084461B2 (Dey, L.P., priority 2001, dated 2011).
Structures can show the parent of a compound that is named as a salt.

Experiments:
patients with COPD [1] = experiment: Double-blind, randomized, positive control trial: treatment-emergent adverse events (safety/tolerability); conditions: percent of patients; for (%) Patients with A (adverse events): any adverse event
Method: (§1) To evaluate the efficacy and safety of the inhalation solution of the present invention, a double-blind, randomized, positive control trial was performed.
(§2) All study medications were administered 4 times per day (ideally every 6 hours) by inhalation using a PARI LC PLUS™ nebulizer and PARI PRONEB® compressor. Concomitant use of bronchodilators was restricted during the trial. Oral and inhaled steroic use was permitted throughout the trial, provided that dosing remained constant.

patients with COPD [2] = experiment: Double-blind, randomized, positive control trial: FEV1 response (efficacy); assay type: in vivo, human; conditions: Crossover phase, nebulized 4 times per day
Method: as §1, §2

Compound | Bronchitis (RESPIRATORY), % (patients with COPD [1]) | Cramps leg (MUSCULO-SKELETAL), % (patients with COPD [1]) | Diarrhea (DIGESTIVE), % (patients with COPD [1]) | Dyspepsia (DIGESTIVE), % (patients with COPD [1]) | Infection urinary tract (UROGENITAL), % (patients with COPD [1]) | Lung Disease (RESPIRATORY), % (patients with COPD [1]) | Nausea (DIGESTIVE), % (patients with COPD [1]) | Pain (BODY AS A WHOLE), % (patients with COPD [1]) | Pain chest (BODY AS A WHOLE), % (patients with COPD [1]) | Pharyngitis (RESPIRATORY), % (patients with COPD [1]) | Pneumonia (RESPIRATORY), % (patients with COPD [1]) | (%) Patients with A (adverse events) (patients with COPD [1]) | Peak FEV1 mean (change from pre-dose to peak FEV1 within 3 hours after dosing) (patients with COPD [2]; Combination vs. Ipratropium comparison) [L] | Peak FEV1 mean (change from pre-dose to peak FEV1 within 3 hours after dosing) (patients with COPD [2]; Combination vs. Albuterol comparison) [L]
CC(C)[N+]1(C)C2CCC1CC(OC(=O)C(CO)c1ccccc1)C2 (racemic) [Ipratropium, 8-azoniabicyclo [3.2.1]-octane, 3-(3, hydroxyl-1-oxo-2-phenylpropoxy)-8methyl-8-(1-methylethyl)-bromide, monohydrate, (endo, syn)-, (±)-] | (1.7) % | (0.8) % | (1.2) % | (1.1) % | (1.2) % | (4.5) % | (0.8) % | (0.5) % | (1.9) % | (3.6) % | (1.1) % | (43.6) % | 0.282 | –
CC(C)(C)NCC(O)c1ccc(O)c(CO)c1 (stereo not drawn) [Albuterol, α^1-[(tert-butylamino)methyl]-4-hydroxy-m-xylene-α,α′-diol sulfate (2:1)(salt)] | (1.4) % | (1.1) % | (0.7) % | (0.9) % | (0.4) % | (4.7) % | (0.9) % | (1.1) % | (1.4) % | (3.5) % | (0.9) % | (43.0) % | – | 0.313
